Columns and labels:
Dipeptidyl peptidase 9 = Dipeptidyl peptidase 9 (Homo sapiens, UniProt Q86TI2); test: Inhibition of DPP9
Dipeptidyl peptidase 2 = Dipeptidyl peptidase 2 (Homo sapiens, UniProt Q9UHL4); test: Inhibition of QPP
Dipeptidyl peptidase 8 = Dipeptidyl peptidase 8 (Homo sapiens, UniProt Q6V1X1); test: Inhibition of DPP8
Dipeptidyl peptidase 4 = Dipeptidyl peptidase 4 (Homo sapiens, UniProt P27487)
Prolyl endopeptidase FAP = biological target: T1, Prolyl endopeptidase FAP (Homo sapiens, UniProt Q12884); test: Inhibition of FAP
T1 sequence (Q12884 whole entry): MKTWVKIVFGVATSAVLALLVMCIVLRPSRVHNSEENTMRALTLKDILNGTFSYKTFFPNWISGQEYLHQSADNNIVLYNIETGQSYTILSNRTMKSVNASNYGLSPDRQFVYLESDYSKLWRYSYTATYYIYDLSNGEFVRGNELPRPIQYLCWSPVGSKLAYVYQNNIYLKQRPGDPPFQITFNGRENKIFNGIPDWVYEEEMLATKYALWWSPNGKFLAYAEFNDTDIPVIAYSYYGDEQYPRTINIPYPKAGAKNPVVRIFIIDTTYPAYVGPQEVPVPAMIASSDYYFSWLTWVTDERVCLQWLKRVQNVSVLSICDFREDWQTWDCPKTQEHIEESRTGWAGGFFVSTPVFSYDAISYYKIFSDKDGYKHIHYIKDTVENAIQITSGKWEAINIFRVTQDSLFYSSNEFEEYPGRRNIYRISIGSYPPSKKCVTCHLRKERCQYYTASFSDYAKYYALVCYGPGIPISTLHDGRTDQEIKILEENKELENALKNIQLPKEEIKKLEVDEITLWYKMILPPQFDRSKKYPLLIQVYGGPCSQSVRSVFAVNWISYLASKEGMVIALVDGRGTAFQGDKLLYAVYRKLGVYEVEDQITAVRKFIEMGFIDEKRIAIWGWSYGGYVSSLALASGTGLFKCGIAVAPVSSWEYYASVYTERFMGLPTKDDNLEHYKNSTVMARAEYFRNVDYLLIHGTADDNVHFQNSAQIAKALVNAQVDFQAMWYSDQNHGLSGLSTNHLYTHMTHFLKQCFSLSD

Dipeptidyl peptidase 9, sequence (Q86TI2 whole entry): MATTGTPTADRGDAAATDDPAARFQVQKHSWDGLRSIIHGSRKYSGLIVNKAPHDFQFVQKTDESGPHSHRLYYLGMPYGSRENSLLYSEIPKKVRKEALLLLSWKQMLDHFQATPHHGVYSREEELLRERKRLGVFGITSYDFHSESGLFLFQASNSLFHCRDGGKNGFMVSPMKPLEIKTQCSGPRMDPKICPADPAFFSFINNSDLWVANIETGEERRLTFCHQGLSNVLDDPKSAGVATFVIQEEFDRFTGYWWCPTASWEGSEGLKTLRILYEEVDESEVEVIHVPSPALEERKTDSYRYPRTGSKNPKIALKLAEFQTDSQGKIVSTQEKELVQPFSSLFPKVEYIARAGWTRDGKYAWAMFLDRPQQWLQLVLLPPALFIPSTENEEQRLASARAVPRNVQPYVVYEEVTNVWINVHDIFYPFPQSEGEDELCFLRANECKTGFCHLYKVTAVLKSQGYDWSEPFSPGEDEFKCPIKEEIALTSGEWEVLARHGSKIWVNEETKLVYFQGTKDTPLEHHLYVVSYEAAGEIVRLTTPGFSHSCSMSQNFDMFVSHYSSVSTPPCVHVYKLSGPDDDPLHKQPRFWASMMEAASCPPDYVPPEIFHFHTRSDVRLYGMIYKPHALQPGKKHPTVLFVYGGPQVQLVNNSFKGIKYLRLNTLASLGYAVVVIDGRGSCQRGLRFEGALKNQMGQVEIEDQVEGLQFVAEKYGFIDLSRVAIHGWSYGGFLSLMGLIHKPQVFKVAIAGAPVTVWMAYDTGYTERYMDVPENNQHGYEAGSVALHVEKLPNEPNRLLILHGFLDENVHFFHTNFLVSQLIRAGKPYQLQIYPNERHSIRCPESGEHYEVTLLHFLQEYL
Dipeptidyl peptidase 8, sequence (Q6V1X1 whole entry): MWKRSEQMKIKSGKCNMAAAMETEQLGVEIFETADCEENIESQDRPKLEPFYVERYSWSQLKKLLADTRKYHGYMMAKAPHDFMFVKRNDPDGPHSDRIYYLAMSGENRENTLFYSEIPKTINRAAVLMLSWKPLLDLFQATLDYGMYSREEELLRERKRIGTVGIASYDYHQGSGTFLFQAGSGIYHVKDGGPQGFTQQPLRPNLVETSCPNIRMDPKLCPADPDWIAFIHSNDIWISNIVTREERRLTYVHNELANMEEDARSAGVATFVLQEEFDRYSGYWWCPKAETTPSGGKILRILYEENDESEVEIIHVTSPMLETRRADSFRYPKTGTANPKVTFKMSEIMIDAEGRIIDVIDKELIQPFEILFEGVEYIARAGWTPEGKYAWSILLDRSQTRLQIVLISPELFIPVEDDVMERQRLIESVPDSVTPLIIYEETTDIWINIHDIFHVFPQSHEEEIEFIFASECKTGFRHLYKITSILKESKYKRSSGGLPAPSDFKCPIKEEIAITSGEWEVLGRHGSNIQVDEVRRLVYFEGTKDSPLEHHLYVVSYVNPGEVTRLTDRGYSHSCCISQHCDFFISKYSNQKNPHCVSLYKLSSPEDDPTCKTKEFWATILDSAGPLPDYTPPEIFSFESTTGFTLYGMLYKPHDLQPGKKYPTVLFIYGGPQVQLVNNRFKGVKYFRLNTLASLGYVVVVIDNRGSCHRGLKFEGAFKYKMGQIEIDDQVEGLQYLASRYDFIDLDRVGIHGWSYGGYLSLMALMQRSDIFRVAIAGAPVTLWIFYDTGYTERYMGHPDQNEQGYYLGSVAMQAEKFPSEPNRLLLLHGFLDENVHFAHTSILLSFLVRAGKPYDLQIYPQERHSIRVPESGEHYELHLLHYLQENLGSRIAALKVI
Dipeptidyl peptidase 4, sequence (P27487 whole entry): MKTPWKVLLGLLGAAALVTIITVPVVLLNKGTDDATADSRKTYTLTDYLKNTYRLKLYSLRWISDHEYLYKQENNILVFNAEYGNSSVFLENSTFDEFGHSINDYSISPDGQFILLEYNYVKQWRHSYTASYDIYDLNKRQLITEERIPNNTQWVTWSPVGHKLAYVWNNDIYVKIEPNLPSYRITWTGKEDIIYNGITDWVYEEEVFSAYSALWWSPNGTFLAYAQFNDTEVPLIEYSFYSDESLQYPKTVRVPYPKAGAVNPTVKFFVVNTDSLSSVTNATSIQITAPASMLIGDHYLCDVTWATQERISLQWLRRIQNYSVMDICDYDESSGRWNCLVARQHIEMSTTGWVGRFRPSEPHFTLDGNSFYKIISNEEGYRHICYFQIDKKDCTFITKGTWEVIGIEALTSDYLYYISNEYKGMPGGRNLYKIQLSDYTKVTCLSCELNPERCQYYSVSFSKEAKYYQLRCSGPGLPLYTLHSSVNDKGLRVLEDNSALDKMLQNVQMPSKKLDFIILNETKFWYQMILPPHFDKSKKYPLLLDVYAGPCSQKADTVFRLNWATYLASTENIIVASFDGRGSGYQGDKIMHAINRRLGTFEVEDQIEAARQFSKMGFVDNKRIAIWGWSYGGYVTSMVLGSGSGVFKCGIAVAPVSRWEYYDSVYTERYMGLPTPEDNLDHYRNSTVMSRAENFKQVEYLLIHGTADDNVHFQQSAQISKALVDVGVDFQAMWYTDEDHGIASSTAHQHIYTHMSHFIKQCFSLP

Row | Structure (SMILES) | IC50 (Dipeptidyl peptidase 9) [µM] | IC50 (Dipeptidyl peptidase 2) [µM] | IC50 (Dipeptidyl peptidase 8) [µM] | IC50 (Dipeptidyl peptidase 4) [µM] | IC50 (Prolyl endopeptidase FAP) [µM]
1 | CS(=O)(=O)N(CCCC(F)(F)F)[C@H]1CC[C@H]([C@H](N)Cc2cc(F)ccc2F)CC1 | > 100 | 86 | > 100 | 2.4 | > 35
2 | N[C@H](Cc1cc(F)ccc1F)C1CCN(c2ncccn2)CC1 |  |  |  |  | > 35
3 | CN(C(=O)c1ccno1)[C@H]1CC[C@H]([C@H](N)Cc2cc(F)ccc2F)CC1 |  | 58 | > 100 | 0.12 | > 35
4 | CN([C@H]1CC[C@H]([C@H](N)Cc2cc(F)ccc2F)CC1)S(=O)(=O)c1ccccc1 |  |  |  |  | > 35
5 | CN(Cc1ccc(C#N)cc1)[C@H]1CC[C@H]([C@H](N)Cc2cc(F)ccc2F)CC1 |  | 12 | > 100 | 0.29 | > 35
6 | CC(=O)N(Cc1ccccc1)[C@H]1CC[C@H]([C@H](N)Cc2cc(F)ccc2F)CC1 |  | 17 | > 100 | 0.11 | > 35
7 | CCN([C@H]1CC[C@H]([C@H](N)Cc2cc(F)ccc2F)CC1)S(=O)(=O)c1c(C)noc1C |  | 29 | > 100 | 0.038 | > 35
8 | Cc1oncc1S(=O)(=O)N(C)[C@H]1CC[C@H]([C@H](N)Cc2cc(F)ccc2F)CC1 | > 100 | 43 | > 100 | 0.17 | > 35
9 | CS(=O)(=O)N(Cc1ccccc1)[C@H]1CC[C@H]([C@H](N)Cc2cc(F)ccc2F)CC1 |  | 11 | > 100 | 1.3 | > 35
10 | CN([C@H]1CC[C@H]([C@H](N)Cc2cc(F)ccc2F)CC1)S(=O)(=O)c1ccc(C#N)cc1 |  | 23 | > 100 | 0.18 | > 35
11 | CC(=O)Nc1nc(C)c(S(=O)(=O)N(C)[C@H]2CC[C@H]([C@H](N)Cc3cc(F)ccc3F)CC2)s1 |  |  |  |  | > 35
12 | CN([C@H]1CC[C@H]([C@H](N)Cc2cc(F)ccc2F)CC1)S(=O)(=O)c1ccc(C(N)=O)cc1 |  |  |  |  | > 35
13 | CN(C(=O)CCC(=O)O)[C@H]1CC[C@H]([C@H](N)Cc2cc(F)ccc2F)CC1 | > 100 | > 100 | > 100 | 0.14 | > 35
14 | N[C@H](Cc1cc(F)ccc1F)C1CCN(c2cccnc2)CC1 |  |  |  |  | > 35
15 | CN(Cc1cccc(C#N)c1)[C@H]1CC[C@H]([C@H](N)Cc2cc(F)ccc2F)CC1 |  | 14 | > 100 | 0.22 | > 35
16 | N[C@H](Cc1cc(F)ccc1F)C1CCN(c2ccc(F)nc2)CC1 |  |  |  |  | > 35
17 | N[C@H](Cc1cc(F)ccc1F)[C@H]1CC[C@H](N2CCn3c(nnc3C(F)(F)F)C2)CC1 |  | 18 |  | 0.33 | > 35
18 | NC(=O)O[C@@H]1CCCN([C@H]2CC[C@H]([C@H](N)Cc3cc(F)ccc3F)CC2)C1 |  |  |  |  | > 35
19 | CCOC(=O)c1cncc(N2CCC([C@H](N)Cc3cc(F)ccc3F)CC2)c1 |  |  |  |  | > 35
20 | N[C@H](Cc1cc(F)ccc1F)[C@H]1CC[C@@H](N2CCn3c(nnc3C(F)(F)F)C2)CC1 |  | > 100 |  | 0.28 | > 35
21 | COc1ncc(N2CCC([C@H](N)Cc3cc(F)ccc3F)CC2)cn1 |  |  |  |  | > 35

Row | Structure (SMILES) | IC50 (Dipeptidyl peptidase 9) [µM] | IC50 (Dipeptidyl peptidase 2) [µM] | IC50 (Dipeptidyl peptidase 8) [µM] | IC50 (Dipeptidyl peptidase 4) [µM] | IC50 (Prolyl endopeptidase FAP) [µM]
22 | N[C@H](Cc1cc(F)ccc1F)[C@H]1CC[C@H](NCCCC(F)(F)F)CC1 |  |  |  |  | > 35
23 | CC(=O)N1CCC([C@H](N)Cc2cc(F)ccc2F)CC1 | > 100 | 66 | > 100 | 0.45 | > 35
24 | N[C@H](Cc1cc(F)ccc1F)[C@H]1CC[C@@H](N2CCC(F)(F)C2)CC1 |  |  |  |  | > 35
25 | NC(=O)C1CCCC(N2CCC([C@H](N)Cc3cc(F)ccc3F)CC2)C1 (stereo not given in full) |  |  |  |  | > 35
26 | N[C@H](Cc1cc(F)ccc1F)[C@H]1CC[C@H](N(CCCC(F)(F)F)Cc2ccccc2)CC1 (mixture of isomers) |  | 23 | > 100 | 0.69 | > 35
27 | NC(=O)C1CCCN([C@H]2CC[C@@H]([C@H](N)Cc3cc(F)ccc3F)CC2)C1 (stereo not given in full) |  |  |  |  | > 35
28 | CN([C@H]1CC[C@H]([C@H](N)Cc2cc(F)ccc2F)CC1)S(=O)(=O)c1ccccc1C(F)(F)F |  |  |  |  | > 35
29 | NC(=O)[C@H]1CCCN([C@H]2CC[C@H]([C@H](N)Cc3cc(F)ccc3F)CC2)C1 |  |  |  |  | > 35
30 | NC(=O)C1CCCN([C@H]2CC[C@H]([C@H](N)Cc3cc(F)ccc3F)CC2)C1 (single isomer, unassigned) |  |  |  |  | > 35
31 | CC(=O)N(CCCC(F)(F)F)[C@H]1CC[C@H]([C@H](N)Cc2cc(F)ccc2F)CC1 | > 100 | 51 | > 100 | 0.1 | > 35
32 | N[C@H](Cc1cc(F)ccc1F)[C@H]1CC[C@H](N2CCC[C@@H](O)C2)CC1 |  | > 100 |  | 0.27 | > 35
33 | N[C@H](Cc1cc(F)ccc1F)C1CCN(c2ccncc2)CC1 |  |  |  |  | > 35
34 | CN([C@H]1CC[C@H]([C@H](N)Cc2cc(F)ccc2F)CC1)S(=O)(=O)c1ccc(N)cc1 |  |  |  |  | > 35
35 | CN([C@H]1CC[C@H]([C@H](N)Cc2cc(F)ccc2F)CC1)S(=O)(=O)c1ccc(F)cc1F |  |  |  |  | > 35
36 | N[C@H](Cc1cc(F)ccc1F)C1CCN(c2ccccn2)CC1 |  |  |  |  | > 35
37 | CN([C@H]1CC[C@H]([C@H](N)Cc2cc(F)ccc2F)CC1)S(=O)(=O)c1cccc(C#N)c1 |  | 9.6 | > 69 | 0.085 | > 35
38 | Cc1noc(C)c1C(=O)N(C)[C@H]1CC[C@H]([C@H](N)Cc2cc(F)ccc2F)CC1 |  |  |  |  | > 35
39 | CN(C(=O)C(C)(C)C)[C@H]1CC[C@H]([C@H](N)Cc2cc(F)ccc2F)CC1 |  |  |  |  | > 35
40 | Cc1[nH]ncc1S(=O)(=O)N(C)[C@H]1CC[C@H]([C@H](N)Cc2cc(F)ccc2F)CC1 | > 100 | 57 |  | 0.28 | > 35
41 | CCN(Cc1ccccc1)[C@H]1CC[C@H]([C@H](N)Cc2cc(F)ccc2F)CC1 |  |  |  |  | > 35
42 | N[C@H](Cc1cc(F)ccc1F)[C@H]1CC[C@H](N2CCC(F)(F)C2)CC1 |  |  |  |  | > 35

Row | Structure (SMILES) | IC50 (Dipeptidyl peptidase 9) [µM] | IC50 (Dipeptidyl peptidase 2) [µM] | IC50 (Dipeptidyl peptidase 8) [µM] | IC50 (Dipeptidyl peptidase 4) [µM] | IC50 (Prolyl endopeptidase FAP) [µM]
43 | N[C@H](Cc1cc(F)ccc1F)C1CCN(c2cnc(=O)[nH]c2)CC1 |  |  |  |  | > 35
44 | CC(C)C(=O)N(C)[C@H]1CC[C@H]([C@H](N)Cc2cc(F)ccc2F)CC1 |  | > 100 | > 100 | 0.13 | > 35
45 | CN([C@H]1CC[C@H]([C@H](N)Cc2cc(F)ccc2F)CC1)S(=O)(=O)c1ccc(-c2cnco2)cc1 |  |  |  |  | > 35
46 | CN([C@H]1CC[C@H]([C@H](N)Cc2cc(F)ccc2F)CC1)S(=O)(=O)c1cccnc1 |  | 35 | > 100 | 0.11 | > 35
47 | Cn1ccc(C(=O)N(C)[C@H]2CC[C@H]([C@H](N)Cc3cc(F)ccc3F)CC2)n1 |  | 21 | > 100 | 0.14 | > 35
48 | CN(C(=O)c1c[nH]c2ccccc12)[C@H]1CC[C@H]([C@H](N)Cc2cc(F)ccc2F)CC1 |  |  |  |  | > 35
49 | N[C@H](Cc1cc(F)ccc1F)[C@H]1CC[C@@H](N2CCCCC2)CC1 |  |  |  |  | > 35
50 | COC(=O)C1CCCC(N2CCC([C@H](N)Cc3cc(F)ccc3F)CC2)C1 (stereo not given in full) |  |  |  |  | > 35
51 | Cc1noc(C)c1S(=O)(=O)N(Cc1ccccc1)[C@H]1CC[C@H]([C@H](N)Cc2cc(F)ccc2F)CC1 |  | 10 | > 100 | 0.67 | > 35
52 | CN(C(=O)c1cccnc1)[C@H]1CC[C@H]([C@H](N)Cc2cc(F)ccc2F)CC1 |  | 58 | > 100 | 0.14 | > 35
53 | CN(C(=O)CCN)[C@H]1CC[C@H]([C@H](N)Cc2cc(F)ccc2F)CC1 |  | > 100 | > 100 | 0.73 | > 35
54 | N[C@H](Cc1cc(F)ccc1F)C1CCN(C2CCCC(C(=O)O)C2)CC1 (stereo not given in full) |  |  |  |  | > 35
55 | N#Cc1cncc(N2CCC([C@H](N)Cc3cc(F)ccc3F)CC2)c1 |  |  |  |  | > 35
56 | CCN([C@H]1CC[C@H]([C@H](N)Cc2cc(F)ccc2F)CC1)S(C)(=O)=O |  | 68 | > 100 | 0.26 | > 35
57 | CC(=O)N(C)[C@H]1CC[C@@H]([C@H](N)Cc2cc(F)ccc2F)CC1 |  | > 100 |  | 0.99 | > 35
58 | CS(=O)(=O)N1CCC([C@H](N)Cc2cc(F)ccc2F)CC1 |  |  |  |  | > 35
59 | N[C@H](C(=O)N1CCSC1)[C@H]1CC[C@H](NC(=O)c2ccc(OC(F)(F)F)cc2)CC1 |  |  |  |  | > 35
60 | CN(C(=O)c1csnn1)[C@H]1CC[C@H]([C@H](N)Cc2cc(F)ccc2F)CC1 |  |  |  |  | > 35
61 | N[C@H](Cc1cc(F)ccc1F)[C@H]1CC[C@H](N2CCCCC2)CC1 |  |  |  |  | > 35
